Consider 1 molecule from patent US20200163947A1 (Nortic Holdings Inc., priority 2018, published 2020).

A word on the bioavailability: it is the share of a dose that reaches the circulation, judged against a reference dose that is usually intravenous.

The conditions of data set [1]: cited from earlier work.
The conditions of data set [2]: 25° C.; cited from earlier work.
The nature of data set [3]: Single dose parallel plasma and CSF pharmacokinetics and relative bioavailability study in rats. The class given is in vivo. The conditions noted are these: both sexes, Wistar, rat, plasma. As to the method:
The pharmacokinetics study was performed in 6 healthy rats (3 males and 3 females). […] Blood samples were collected at 15 minutes, 30 minutes, and at 1, 2, 4, 6, 8, 12 and 24 hours post-dose. CSF samples were collected at 1, 2, 4, and 24 hours post-dose. All samples were analyzed using a validated analytical LC-MS method.

Molecules are shown by their SMILES. ≈ marks a conversion by molar mass, not a printed value. Read-outs that look alike come from different tables or passages of the source. Some results are limits rather than exact numbers.

For `COCCOC(=O)C1=C(C)NC(C)=C(C(=O)OC(C)C)C1c1cccc([N+](=O)[O-])c1` (stereo not drawn) [nimodipine, isopropyl 2-methoxyethyl 1,4-dihydro-2,6-dimethyl-4-(m-nitrophenyl)-3,5-pyridinedicarboxylate], the “half-life equivalent to earlier elimination rates” value in data set [1] (man) is 1 to 2 h. For the same molecule, the “concentration in the cerebrospinal fluid” value in data set [1] (nimodipine-treated subarachnoid hemorrhage (SAH) patients) is recorded as no more than 12.5 ng/mL. For the same molecule, the “Cmax in patients with hepatic cirrhosis versus normal” value in data set [1] (oral administration) is given as “approximately double”. The solubility in water in data set [2] is 2.5 µg/mL (≈ 5.97 µM). The bioavailability in data set [3] (0.73 mg, continuous intravenous infusion, read-out: absolute bioavailability) is 100%; in data set [3] (rats, 5.5 mg oral solution by oral gavage, Mean, read-out: Absolute Bioavailability (F %)), 22%.
